Among the data in PMC7026418, “The kinase polypharmacology landscape of clinical PARP inhibitors” (Scientific Reports, 2020) are percent of control binding values, retold here.

Holding throughout (assay): biochemical
What all share (set-up): DiscoveRx KINOMEscan active site-directed competition binding; percent of control kinase bound to immobilised ligand

The target of test [1] is T1, RSK1(Kin.Dom.1-N-terminal) (Homo sapiens, UniProt Q15418).
T1 construct: gene RPS6KA1; Kin.Dom.1-N-terminal

In test [2] the target is EGFR(G719C) (Homo sapiens, UniProt P00533, G719C).
The target in test [3] is KIT-autoinhibited (Homo sapiens, UniProt P10721).
Test [4] addresses T2, LATS1 (Homo sapiens, UniProt O95835).
T2 sequence (O95835 1-1130): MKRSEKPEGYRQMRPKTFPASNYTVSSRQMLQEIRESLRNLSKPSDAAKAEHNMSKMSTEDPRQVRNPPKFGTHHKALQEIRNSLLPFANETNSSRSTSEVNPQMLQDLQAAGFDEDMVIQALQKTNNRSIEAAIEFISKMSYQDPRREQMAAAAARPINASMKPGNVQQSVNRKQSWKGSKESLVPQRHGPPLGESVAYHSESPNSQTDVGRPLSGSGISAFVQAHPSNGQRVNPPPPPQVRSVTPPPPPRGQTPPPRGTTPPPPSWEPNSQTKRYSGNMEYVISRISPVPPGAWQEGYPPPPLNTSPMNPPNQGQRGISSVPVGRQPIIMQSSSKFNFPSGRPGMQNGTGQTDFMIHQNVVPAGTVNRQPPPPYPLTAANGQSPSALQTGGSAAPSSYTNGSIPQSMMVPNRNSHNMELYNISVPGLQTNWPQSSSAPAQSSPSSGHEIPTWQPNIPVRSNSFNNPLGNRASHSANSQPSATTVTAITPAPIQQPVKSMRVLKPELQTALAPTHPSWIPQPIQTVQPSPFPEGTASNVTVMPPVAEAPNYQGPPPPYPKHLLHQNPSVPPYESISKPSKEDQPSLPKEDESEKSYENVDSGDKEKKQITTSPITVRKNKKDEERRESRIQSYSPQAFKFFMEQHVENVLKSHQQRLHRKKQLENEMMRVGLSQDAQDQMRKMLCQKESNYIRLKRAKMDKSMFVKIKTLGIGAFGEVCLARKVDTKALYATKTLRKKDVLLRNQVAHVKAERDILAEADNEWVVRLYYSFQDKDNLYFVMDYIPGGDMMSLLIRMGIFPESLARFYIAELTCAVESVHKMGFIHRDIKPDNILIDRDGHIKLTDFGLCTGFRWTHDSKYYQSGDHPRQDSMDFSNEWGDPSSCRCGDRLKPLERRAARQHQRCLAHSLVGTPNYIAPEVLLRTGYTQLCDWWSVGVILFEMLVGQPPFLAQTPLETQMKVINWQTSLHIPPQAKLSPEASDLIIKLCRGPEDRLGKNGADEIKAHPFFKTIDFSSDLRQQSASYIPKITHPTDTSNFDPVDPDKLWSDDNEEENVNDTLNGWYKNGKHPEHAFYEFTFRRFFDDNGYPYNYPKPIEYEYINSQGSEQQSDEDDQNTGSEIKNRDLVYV

The target of test [5] is CSNK2A1 (Homo sapiens, UniProt P68400).
Test [6] addresses CIT (Homo sapiens, UniProt O14578).
Test [7] has as its target T3, PAK7 (Homo sapiens, UniProt Q9P286).
T3 construct: gene PAK5

For test [8], the target named is T4, ERK1 (Homo sapiens, UniProt P27361).
T4 construct: gene MAPK3

Test [9] has as its target CLK3 (Homo sapiens, UniProt P49761).
Test [10] concerns the target T5, TRKB (Homo sapiens, UniProt Q16620).
T5 construct: gene NTRK2

The target of test [11] is EGFR (Homo sapiens, UniProt P00533).
For test [12], the target named is T6, ZAK (Homo sapiens, UniProt Q9NYL2).
T6 construct: gene MAP3K20

Where [13] appears, read: read-out: Rucaparib / %Ctrl @ 10000nM, binding competition, % of control.
[14] abbreviates: read-out: Talazoparib (BMN 673) / %Ctrl @ 10000nM.
The mark [15] stands for this setting: read-out: Niraparib (MK-4827) / %Ctrl @ 10000nM.
Where [16] appears, read: read-out: Olaparib / %Ctrl @ 10000nM.

Structures are written as SMILES. Read-outs that look alike come from different tables or passages of the source.

T5 sequence (Q16620 whole entry): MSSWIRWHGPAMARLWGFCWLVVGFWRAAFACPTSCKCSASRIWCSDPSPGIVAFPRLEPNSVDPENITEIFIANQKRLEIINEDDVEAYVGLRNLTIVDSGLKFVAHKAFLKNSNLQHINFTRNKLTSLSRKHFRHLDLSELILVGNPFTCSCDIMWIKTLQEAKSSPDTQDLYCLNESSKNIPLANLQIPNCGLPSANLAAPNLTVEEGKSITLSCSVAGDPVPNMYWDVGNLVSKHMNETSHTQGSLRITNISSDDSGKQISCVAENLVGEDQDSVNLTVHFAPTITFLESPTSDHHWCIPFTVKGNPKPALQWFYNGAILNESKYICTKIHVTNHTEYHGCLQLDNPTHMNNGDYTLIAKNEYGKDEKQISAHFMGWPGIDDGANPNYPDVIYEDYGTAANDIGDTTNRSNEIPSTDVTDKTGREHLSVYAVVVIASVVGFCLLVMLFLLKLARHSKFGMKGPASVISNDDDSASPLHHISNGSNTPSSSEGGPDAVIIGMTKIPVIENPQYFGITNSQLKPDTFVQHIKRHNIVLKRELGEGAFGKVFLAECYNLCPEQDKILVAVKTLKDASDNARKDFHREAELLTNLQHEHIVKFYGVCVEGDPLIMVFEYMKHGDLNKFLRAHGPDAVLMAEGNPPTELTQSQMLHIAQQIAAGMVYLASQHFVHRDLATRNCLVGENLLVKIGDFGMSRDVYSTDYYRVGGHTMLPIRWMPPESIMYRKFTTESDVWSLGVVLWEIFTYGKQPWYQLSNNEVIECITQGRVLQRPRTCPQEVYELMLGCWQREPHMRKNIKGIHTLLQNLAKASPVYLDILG
Chain of EGFR(G719C) (P00533 whole entry G719C): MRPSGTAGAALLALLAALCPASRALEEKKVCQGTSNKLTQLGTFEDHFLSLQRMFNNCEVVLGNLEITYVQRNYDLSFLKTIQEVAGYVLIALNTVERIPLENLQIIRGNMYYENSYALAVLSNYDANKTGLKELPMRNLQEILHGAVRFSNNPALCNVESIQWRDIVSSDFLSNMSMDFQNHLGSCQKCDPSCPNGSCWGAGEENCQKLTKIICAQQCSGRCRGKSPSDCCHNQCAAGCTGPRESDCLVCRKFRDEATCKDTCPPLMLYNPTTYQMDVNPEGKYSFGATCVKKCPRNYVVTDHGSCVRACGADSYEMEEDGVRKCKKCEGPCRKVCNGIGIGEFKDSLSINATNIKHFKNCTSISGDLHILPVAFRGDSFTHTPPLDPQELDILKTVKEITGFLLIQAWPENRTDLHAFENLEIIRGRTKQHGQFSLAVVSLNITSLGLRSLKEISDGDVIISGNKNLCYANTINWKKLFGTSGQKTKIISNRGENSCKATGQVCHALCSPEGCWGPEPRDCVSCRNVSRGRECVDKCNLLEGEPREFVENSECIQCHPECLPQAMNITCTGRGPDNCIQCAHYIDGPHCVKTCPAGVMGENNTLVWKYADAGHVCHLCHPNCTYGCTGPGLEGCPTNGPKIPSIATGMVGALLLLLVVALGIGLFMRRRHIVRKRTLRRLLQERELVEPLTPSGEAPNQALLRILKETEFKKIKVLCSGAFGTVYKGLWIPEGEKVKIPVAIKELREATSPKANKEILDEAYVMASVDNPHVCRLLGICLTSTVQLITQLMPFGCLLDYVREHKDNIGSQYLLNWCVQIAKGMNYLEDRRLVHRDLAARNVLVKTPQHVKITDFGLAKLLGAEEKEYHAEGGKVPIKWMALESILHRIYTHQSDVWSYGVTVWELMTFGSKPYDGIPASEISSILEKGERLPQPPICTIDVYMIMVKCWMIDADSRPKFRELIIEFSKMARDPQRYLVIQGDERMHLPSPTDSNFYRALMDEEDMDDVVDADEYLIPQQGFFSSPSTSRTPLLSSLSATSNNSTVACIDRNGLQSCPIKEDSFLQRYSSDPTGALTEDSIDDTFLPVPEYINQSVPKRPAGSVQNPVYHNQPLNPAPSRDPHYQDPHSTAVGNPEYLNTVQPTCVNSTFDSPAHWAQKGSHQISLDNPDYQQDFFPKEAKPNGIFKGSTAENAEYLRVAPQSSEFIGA
Chain of CLK3 (P49761 whole entry): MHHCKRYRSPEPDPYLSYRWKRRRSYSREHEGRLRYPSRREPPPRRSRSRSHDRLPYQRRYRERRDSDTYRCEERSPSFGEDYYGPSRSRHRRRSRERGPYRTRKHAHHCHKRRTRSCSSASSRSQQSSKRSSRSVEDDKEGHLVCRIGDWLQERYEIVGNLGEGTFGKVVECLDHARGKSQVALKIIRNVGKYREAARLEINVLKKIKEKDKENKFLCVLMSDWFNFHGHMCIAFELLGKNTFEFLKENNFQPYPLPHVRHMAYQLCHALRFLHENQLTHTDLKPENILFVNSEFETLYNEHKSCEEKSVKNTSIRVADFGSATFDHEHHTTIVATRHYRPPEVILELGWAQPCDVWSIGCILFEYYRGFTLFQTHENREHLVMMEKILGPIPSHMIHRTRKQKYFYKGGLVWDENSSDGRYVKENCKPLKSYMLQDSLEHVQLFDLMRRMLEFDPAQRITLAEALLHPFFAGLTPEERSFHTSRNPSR
T4 sequence (P27361 whole entry): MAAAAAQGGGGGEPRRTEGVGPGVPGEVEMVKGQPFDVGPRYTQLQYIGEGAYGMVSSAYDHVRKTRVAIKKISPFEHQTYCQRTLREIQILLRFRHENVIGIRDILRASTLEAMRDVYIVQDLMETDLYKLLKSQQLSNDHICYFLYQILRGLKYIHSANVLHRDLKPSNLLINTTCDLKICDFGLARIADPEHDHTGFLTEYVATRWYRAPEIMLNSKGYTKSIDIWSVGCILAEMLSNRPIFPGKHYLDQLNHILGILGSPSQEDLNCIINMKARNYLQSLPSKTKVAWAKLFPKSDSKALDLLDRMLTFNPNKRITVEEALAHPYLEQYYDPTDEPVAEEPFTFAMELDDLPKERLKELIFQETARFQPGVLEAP
Chain of CIT (O14578 whole entry): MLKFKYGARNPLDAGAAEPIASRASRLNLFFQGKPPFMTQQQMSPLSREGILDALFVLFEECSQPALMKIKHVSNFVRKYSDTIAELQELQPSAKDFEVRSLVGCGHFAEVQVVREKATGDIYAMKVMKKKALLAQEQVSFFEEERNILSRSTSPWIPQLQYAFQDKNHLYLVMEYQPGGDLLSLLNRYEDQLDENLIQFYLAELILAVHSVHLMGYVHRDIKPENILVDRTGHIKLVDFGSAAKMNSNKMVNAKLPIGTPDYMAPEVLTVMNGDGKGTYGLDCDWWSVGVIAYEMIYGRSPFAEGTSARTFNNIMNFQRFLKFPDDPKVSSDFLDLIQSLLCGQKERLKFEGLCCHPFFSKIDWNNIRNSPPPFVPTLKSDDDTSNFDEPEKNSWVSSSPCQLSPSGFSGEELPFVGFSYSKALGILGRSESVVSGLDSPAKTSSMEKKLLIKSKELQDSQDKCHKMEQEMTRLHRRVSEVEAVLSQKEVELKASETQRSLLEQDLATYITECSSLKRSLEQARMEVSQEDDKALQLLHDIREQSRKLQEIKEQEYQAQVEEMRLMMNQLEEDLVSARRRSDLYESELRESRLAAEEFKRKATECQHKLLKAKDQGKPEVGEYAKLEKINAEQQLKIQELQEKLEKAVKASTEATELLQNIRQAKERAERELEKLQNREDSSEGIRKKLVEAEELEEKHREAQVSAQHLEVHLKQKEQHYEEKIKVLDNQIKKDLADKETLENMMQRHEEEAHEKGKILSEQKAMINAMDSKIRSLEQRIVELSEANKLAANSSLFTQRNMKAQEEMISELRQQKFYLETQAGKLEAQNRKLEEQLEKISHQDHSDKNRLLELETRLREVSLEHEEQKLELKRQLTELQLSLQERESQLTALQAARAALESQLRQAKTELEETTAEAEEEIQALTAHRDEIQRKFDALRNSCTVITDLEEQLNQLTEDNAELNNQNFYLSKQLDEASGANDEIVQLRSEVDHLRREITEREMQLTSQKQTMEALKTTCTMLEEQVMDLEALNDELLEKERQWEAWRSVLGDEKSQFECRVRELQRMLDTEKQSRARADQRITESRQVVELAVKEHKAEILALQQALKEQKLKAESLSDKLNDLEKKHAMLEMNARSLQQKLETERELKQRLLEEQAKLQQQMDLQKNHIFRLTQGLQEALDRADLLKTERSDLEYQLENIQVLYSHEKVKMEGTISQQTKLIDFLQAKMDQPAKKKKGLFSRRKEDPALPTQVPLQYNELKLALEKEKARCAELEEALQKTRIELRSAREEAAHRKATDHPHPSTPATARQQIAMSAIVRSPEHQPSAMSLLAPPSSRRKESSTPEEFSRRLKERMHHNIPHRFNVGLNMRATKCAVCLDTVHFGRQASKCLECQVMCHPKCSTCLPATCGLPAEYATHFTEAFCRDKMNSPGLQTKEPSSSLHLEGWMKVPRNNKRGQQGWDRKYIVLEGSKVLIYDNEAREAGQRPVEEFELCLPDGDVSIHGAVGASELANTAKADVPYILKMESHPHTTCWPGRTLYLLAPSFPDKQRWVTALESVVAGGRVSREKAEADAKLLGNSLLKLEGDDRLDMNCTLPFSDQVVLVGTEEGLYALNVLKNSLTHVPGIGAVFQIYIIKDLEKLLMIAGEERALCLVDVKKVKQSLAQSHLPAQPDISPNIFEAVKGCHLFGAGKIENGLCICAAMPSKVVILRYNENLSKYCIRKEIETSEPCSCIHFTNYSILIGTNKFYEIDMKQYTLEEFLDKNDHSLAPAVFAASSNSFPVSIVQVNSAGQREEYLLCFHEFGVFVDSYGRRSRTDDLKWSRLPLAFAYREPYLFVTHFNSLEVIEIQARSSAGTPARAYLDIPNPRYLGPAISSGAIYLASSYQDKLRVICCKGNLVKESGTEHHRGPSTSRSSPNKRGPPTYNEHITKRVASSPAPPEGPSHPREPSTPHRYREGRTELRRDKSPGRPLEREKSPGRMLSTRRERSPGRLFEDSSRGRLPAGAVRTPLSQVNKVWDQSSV

Turning to `CNCc1ccc(-c2[nH]c3cc(F)cc4c3c2CCNC4=O)cc1` [Rucaparib], the percent of control binding at 10 µM in test [1] (setting [13]) was 91%; in test [2] (setting [13]) it was 82%; in test [3] (setting [13]), 68%; in test [4] (setting [13]), 75%; in [5] (setting [13]), 2.2%; in test [6] (setting [13]), 4.8%. Moreover, the percent of control binding at 10 µM in [7] (setting [13]) was 86%; in test [8] (setting [13]) it was 100%; in test [9] (setting [13]), 75%; in test [10] (setting [13]), 66%; in test [11] (setting [13]) it was 87%; in test [12] (setting [13]), 93%.
In the case of `Cn1ncnc1[C@H]1c2n[nH]c(=O)c3cc(F)cc(c23)N[C@@H]1c1ccc(F)cc1` [Talazoparib], the percent of control binding at 10 µM in test [1] (setting [14]) is 100%; in [2] (setting [14]), 99%; in test [3] (setting [14]) it was 100%; in [4] (setting [14]) it was 92%; in [5] (setting [14]), 98%; in test [6] (setting [14]), 98%. The percent of control binding at 10 µM in test [7] (setting [14]) worked out at 100%; in test [8] (setting [14]), 87%; in [9] (setting [14]), 17%; in test [10] (setting [14]) it was 100%; in test [11] (setting [14]), 85%; in test [12] (setting [14]), 97%.
As for `NC(=O)c1cccc2cn(-c3ccc([C@@H]4CCCNC4)cc3)nc12` [Niraparib], the percent of control binding at 10 µM in test [1] (setting [15]) turned out to be 98%; in [2] (setting [15]), 86%; in [3] (setting [15]) it was 85%; in [4] (setting [15]) it was 36%; in test [5] (setting [15]), 6.8%; in test [6] (setting [15]) it was 10%. For the same compound, the percent of control binding at 10 µM was 86% in test [7] (setting [15]); 98% in test [8] (setting [15]); 100% in test [9] (setting [15]); 96% in test [10] (setting [15]); 67% in test [11] (setting [15]); 88% in [12] (setting [15]).
Turning to `O=C(c1cc(Cc2n[nH]c(=O)c3ccccc23)ccc1F)N1CCN(C(=O)C2CC2)CC1` [Olaparib], the percent of control binding at 10 µM in test [1] (setting [16]) was 94%; in test [2] (setting [16]) it was 98%; in test [3] (setting [16]) it was 93%; in test [4] (setting [16]), 78%; in test [5] (setting [16]), 88%; in test [6] (setting [16]), 87%. Further, the percent of control binding at 10 µM was 100% in test [7] (setting [16]); 98% in test [8] (setting [16]); 89% in test [9] (setting [16]); 76% in test [10] (setting [16]); 82% in test [11] (setting [16]); 94% in [12] (setting [16]).
